Measurements from patent publication US6436990B1, “6-methoxy-2-naphthylacetic acid prodrugs” (Nobex Corporation, priority 1999, dated 2002).

What was measured:
Rat Paw Edema = assay: Rat Paw Edema; type: in vivo; conditions: for % Inhibition: one dose per compound (Dose column, mg/kg): Nabumetone 79.0, 6-MNA 75.0, Indomethacin 10.0, Example 1 94.3, Example 2 121.0, Example 3 94.9, Example 4 121.0
[1] = oral administration; cited from earlier work

| SMILES | melting point | ED50 (Rat Paw Edema) [mg/kg] | % Inhibition (Rat Paw Edema) [%] | share of orally administered nabumetone transferred in vivo into 6MNA [1] |
| --- | --- | --- | --- | --- |
| COc1ccc2cc(CC(=O)OCCOCCO[N+](=O)[O-])ccc2c1 [Example 2, (6-Methoxy-naphthalen-2-yl)-acetic acid 2-(2-nitrooxy-ethoxy)-ethyl ester] | – | – | 57 | – |
| COc1ccc2cc(CC(=O)O)ccc2c1 [Example 6-MNA, 6-methoxy-2-naphthylacetic acid] | – | – | 45 | – |
| COc1ccc2c(c1)c(CC(=O)O)c(C)n2C(=O)c1ccc(Cl)cc1 [Indomethacin, reference compound] | – | – | 51 | – |
| COc1ccc2cc(CCC(C)=O)ccc2c1 [Nabumetone, nabumetone, reference compound] | – | 35.9 | 60 | about 35% |

More lines, main results first:

| melting point | SMILES | ED50 (Rat Paw Edema) [mg/kg] | % Inhibition (Rat Paw Edema) [%] | share of orally administered nabumetone transferred in vivo into 6MNA [1] |
| --- | --- | --- | --- | --- |
| 122 to 124 °C | COc1ccc2cc(CC(=O)OCC(C)=O)ccc2c1 [Example 1, (6-methoxy-naphthalen-2-yl)-acetic acid 2-oxo-propyl ester] | 33.9 | 65 | – |
| 190 to 192 °C (dec.) | COc1ccc2cc(CC(=O)OCC(=O)O)ccc2c1 [Example 3, (6-methoxy-naphthalen-2-yl)-acetic acid carboxymethyl ester] | – | 58 | – |
| 38 to 40 °C | CCOC(=O)COC(=O)Cc1ccc2cc(OC)ccc2c1 [Example 4, (6-methoxy-naphthalen-2-yl)-acetic acid ethoxycarbonylmethyl ester] | – | 38 | – |
| 129 °C | COCCNC(=O)Cc1ccc2cc(OC)ccc2c1 [Example 8, N-(2-methoxy-ethyl)-2-(6-methoxy-naphthalen-2-yl)-acetamide] | – | – | – |
| 234 to 236 °C | COc1ccc2cc(CC(N)=O)ccc2c1 [Example 10, 2-(6-methoxy-naphthalen-2-yl)-acetamide] | – | – | – |
